In PMC2000878, “Module structure of interphotoreceptor retinoid-binding protein (IRBP) may provide bases for its complex role in the visual cycle – structure/function study of Xenopus IRBP” (BMC Biochemistry, 2007):
Read-outs that look alike come from different tables or passages of the source.

How the values were obtained:
Assay in all cases: Competitive fluorescence titration of all-trans retinol with 11-cis retinaldehyde
Format in all cases: binding
Xenopus IRBP Module 1 = Xenopus IRBP Module 1 (Xenopus laevis, UniProt Q7SZI7); details: protein 0.99 μM
Description: (§1) Figure 9 Competitive inhibition by 11-cis retinaldehyde of all-trans retinol binding to the individual modules of Xenopus IRBP. Binding of all-trans retinol to the individual modules was measured by fluorescence enhancement in the presence of varying amounts of 11-cis retinal. Panels A through D correspond to modules 1 through 4 respectively. […] Three dimensional nonlinear regression was used to determine the number of binding sites, the dissociation constant of all-trans retinol, and the dissociation constant of 11-cis retinal for each of the individual modules. The concentrations of the proteins used in the titrations were as follows: module 1 (0.99 μM; panel A); module 2 (1.10 μM; panel B); module 3 (1.10 μM; panel C); module 4 (1.00 μM; panel D).
(§2) To describe the displacement of all-trans retinol by 11-cis retinaldehyde, Equation 1 was modified to take into account the competition between the two ligands. The apparent dissociation constants for all-trans retinol measured under these conditions is related to the dissociation constant of 11-cis retinaldehyde through the following expression.
(§3) Kapp=Kdall−trans[1+Rt11−cis/Kd11−cis] MathType@MTEF@5@5@+=feaafiart1ev1aaatCvAUfKttLearuWrP9MDH5MBPbIqV92AaeXatLxBI9gBaebbnrfifHhDYfgasaacH8akY=wiFfYdH8Gipec8Eeeu0xXdbba9frFj0=OqFfea0dXdd9vqai=hGuQ8kuc9pgc9s8qqaq=dirpe0xb9q8qiLsFr0=vr0=vr0dc8meaabaqaciaacaGaaeqabaqabeGadaaakeaacqWGlbWsdaWgaaWcbaGaemyyaeMaemiCaaNaemiCaahabeaakiabg2da9iabdUealnaaDaaaleaacqWGKbazaeaacqWGHbqycqWGSbaBcqWGSbaBcqGHsislcqWG0baDcqWGYbGCcqWGHbqycqWGUbGBcqWGZbWCaaGcdaWadaqaaiabigdaXiabgUcaRmaalaaabaGaemOuai1aa0baaSqaaiabdsha0bqaaiabigdaXiabigdaXiabgkHiTiabdogaJjabdMgaPjabdohaZbaaaOqaaiabdUealnaaDaaaleaacqWGKbazaeaacqaIXaqmcqaIXaqmcqGHsislcqWGJbWycqWGPbqAcqWGZbWCaaaaaaGccaGLBbGaayzxaaaaaa@58DE@
(§4) The origin of the above expression is discussed in reviews dealing with competition assays. Substitution of equation 2 into equation 1 yields the following expression.
(§5) Fenh=C1+C2[Rtall−trans−(Rtall−trans+NPt+Kdall−trans+Kdall−transRt11−cis/Kd11−cis)^2−4NPtRtall−trans] MathType@MTEF@5@5@+=feaafiart1ev1aaatCvAUfKttLearuWrP9MDH5MBPbIqV92AaeXatLxBI9gBaebbnrfifHhDYfgasaacH8akY=wiFfYdH8Gipec8Eeeu0xXdbba9frFj0=OqFfea0dXdd9vqai=hGuQ8kuc9pgc9s8qqaq=dirpe0xb9q8qiLsFr0=vr0=vr0dc8meaabaqaciaacaGaaeqabaqabeGadaaakeaacqWGgbGrdaWgaaWcbaGaemyzauMaemOBa4MaemiAaGgabeaakiabg2da9iabdoeadnaaBaaaleaacqaIXaqmaeqaaOGaey4kaSIaem4qam0aaSbaaSqaaiabikdaYaqabaGcdaWadaqaaiabdkfasnaaDaaaleaacqWG0baDaeaacqWGHbqycqWGSbaBcqWGSbaBcqGHsislcqWG0baDcqWGYbGCcqWGHbqycqWGUbGBcqWGZbWCaaGccqGHsisldaGcaaqaamaabmaabaGaemOuai1aa0baaSqaaiabdsha0bqaaiabdggaHjabdYgaSjabdYgaSjabgkHiTiabdsha0jabdkhaYjabdggaHjabd6gaUjabdohaZbaakiabgUcaRiabd6eaojabdcfaqnaaBaaaleaacqWG0baDaeqaaOGaey4kaSIaem4saS0aa0baaSqaaiabdsgaKbqaaiabdggaHjabdYgaSjabdYgaSjabgkHiTiabdsha0jabdkhaYjabdggaHjabd6gaUjabdohaZbaakiabgUcaRmaalaaabaGaem4saS0aa0baaSqaaiabdsgaKbqaaiabdggaHjabdYgaSjabdYgaSjabgkHiTiabdsha0jabdkhaYjabdggaHjabd6gaUjabdohaZbaakiabdkfasnaaDaaaleaacqWG0baDaeaacqaIXaqmcqaIXaqmcqGHsislcqWGJbWycqWGPbqAcqWGZbWCaaaakeaacqWGlbWsdaqhaaWcbaGaemizaqgabaGaeGymaeJaeGymaeJaeyOeI0Iaem4yamMaemyAaKMaem4CamhaaaaaaOGaayjkaiaawMcaamaaCaaaleqabaGaeGOmaidaaOGaeyOeI0IaeGinaqJaemOta4Kaemiuaa1aaSbaaSqaaiabdsha0bqabaGccqWGsbGudaqhaaWcbaGaemiDaqhabaGaemyyaeMaemiBaWMaemiBaWMaeyOeI0IaemiDaqNaemOCaiNaemyyaeMaemOBa4Maem4CamhaaaqabaaakiaawUfacaGLDbaaaaa@A768@

Xenopus IRBP Module 2 = molecular target: T1, Xenopus IRBP Module 2 (Xenopus laevis, UniProt Q7SZI7)
T1 construct: cDNAs corresponding to the full-length IRBP, module 1, and module 2 were expressed in pThioHis; modules 3 and 4 were expressed in pTrxFus; made in house; host or cells: E. coli Top10 (pThioHis)
T1 sequence (Q7SZI7 319-617 limits assumed): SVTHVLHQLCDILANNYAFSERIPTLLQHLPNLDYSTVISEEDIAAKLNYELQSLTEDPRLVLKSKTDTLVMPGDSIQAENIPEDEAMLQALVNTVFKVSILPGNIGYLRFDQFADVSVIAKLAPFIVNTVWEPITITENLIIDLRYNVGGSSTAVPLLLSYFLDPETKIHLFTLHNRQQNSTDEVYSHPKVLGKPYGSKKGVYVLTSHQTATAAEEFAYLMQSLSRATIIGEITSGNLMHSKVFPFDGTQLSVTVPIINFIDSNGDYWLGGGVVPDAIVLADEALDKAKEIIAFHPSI
Description: as §1, §2, §3, §4, §5

Xenopus IRBP Module 3 = molecular target: T2, Xenopus IRBP Module 3 (Xenopus laevis, UniProt Q7SZI7); details: protein 1.10 μM
T2 construct: cDNAs corresponding to the full-length IRBP, module 1, and module 2 were expressed in pThioHis; modules 3 and 4 were expressed in pTrxFus; made in house; host or cells: E. coli GI724 / GI698 (pTrxFus)
Description: as §1, §2, §3, §4, §5

Xenopus IRBP Module 4 = molecular target: T3, Xenopus IRBP Module 4 (Xenopus laevis, UniProt Q7SZI7); details: protein 1.00 μM
T3 construct: cDNAs corresponding to the full-length IRBP, module 1, and module 2 were expressed in pThioHis; modules 3 and 4 were expressed in pTrxFus; made in house; host or cells: E. coli GI724 / GI698 (pTrxFus)
Description: as §1, §2, §3, §4, §5

[1] = competition, in presence of 11-cis retinal, read-out: Kd All-trans retinol
[2] = competition with all-trans retinol, read-out: Kd 11-cis retinal

Xenopus IRBP Module 1, sequence (Q7SZI7 23-318): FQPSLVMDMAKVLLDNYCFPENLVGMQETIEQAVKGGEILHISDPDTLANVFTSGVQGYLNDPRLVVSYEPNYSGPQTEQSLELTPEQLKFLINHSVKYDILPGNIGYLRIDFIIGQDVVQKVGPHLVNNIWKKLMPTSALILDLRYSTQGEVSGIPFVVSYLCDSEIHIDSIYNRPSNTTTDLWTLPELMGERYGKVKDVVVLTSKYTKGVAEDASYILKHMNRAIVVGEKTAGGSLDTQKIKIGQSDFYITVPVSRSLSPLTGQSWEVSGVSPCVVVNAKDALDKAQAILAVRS
T2 sequence (Q7SZI7 616-912): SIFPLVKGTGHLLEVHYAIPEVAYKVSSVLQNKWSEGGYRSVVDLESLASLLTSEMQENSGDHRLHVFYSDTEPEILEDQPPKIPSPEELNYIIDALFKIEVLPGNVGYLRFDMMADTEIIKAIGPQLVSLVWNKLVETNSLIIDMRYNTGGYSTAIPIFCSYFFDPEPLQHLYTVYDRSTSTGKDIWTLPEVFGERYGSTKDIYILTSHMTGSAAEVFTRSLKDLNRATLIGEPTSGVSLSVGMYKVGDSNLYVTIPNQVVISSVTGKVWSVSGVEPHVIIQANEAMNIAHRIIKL
T3 sequence (Q7SZI7 923-1219): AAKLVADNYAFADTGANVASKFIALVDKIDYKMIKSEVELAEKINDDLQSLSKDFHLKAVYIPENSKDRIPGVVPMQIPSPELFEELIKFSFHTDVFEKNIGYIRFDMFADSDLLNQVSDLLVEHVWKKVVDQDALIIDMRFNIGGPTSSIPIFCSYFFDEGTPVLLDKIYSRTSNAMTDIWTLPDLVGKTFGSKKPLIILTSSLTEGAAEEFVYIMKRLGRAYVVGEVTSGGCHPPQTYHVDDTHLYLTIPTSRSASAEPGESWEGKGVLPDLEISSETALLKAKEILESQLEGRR

Row | Kd (Xenopus IRBP Module 1; [1]) | Kd (Xenopus IRBP Module 2; competition, in presence of 11-cis retinal, protein 1.10 μM, read-out: Kd All-trans retinol) | Kd (Xenopus IRBP Module 3; [1]) | Kd (Xenopus IRBP Module 4; [1]) | Kd (Xenopus IRBP Module 1; [2]) | Binding sites (N) (Xenopus IRBP Module 1; competition, shared sites) | Kd (Xenopus IRBP Module 2; competition with all-trans retinol, protein 1.10 μM, read-out: Kd 11-cis retinal) | Binding sites (N) (Xenopus IRBP Module 2; competition, shared sites, protein 1.10 μM) | Kd (Xenopus IRBP Module 3; [2]) | Binding sites (N) (Xenopus IRBP Module 3; competition, shared sites) | Kd (Xenopus IRBP Module 4; [2]) | Binding sites (N) (Xenopus IRBP Module 4; competition, shared sites) | Compound | Ligand selectivity of module 2 (Xenopus IRBP Module 2; comparison of Kd for all-trans retinol and 11-cis retinaldehyde)
1 | 670 ± 170 nM | 74 ± 37 nM | 840 ± 220 nM | 410 ± 90 nM | – | – | – | – | – | – | – | – | CC1=C(/C=C/C(C)=C/C=C/C(C)=C/CO)C(C)(C)CCC1 [all-trans retinol] | selectivity for all-trans retinol over 11-cis retinaldehyde
2 | – | – | – | – | 570 ± 110 nM | 1.29 ± 0.24 | 280 ± 130 nM | 1.22 ± 0.10 | 560 ± 110 nM | 1.90 ± 0.28 | 290 ± 50 nM | 1.47 ± 0.18 | CC1=C(/C=C/C(C)=C/C=C/C(C)=C/C=O)C(C)(C)CCC1 [11-cis retinal] | –
